Conditions: 101.33 kPa, Liquid, Concentric cylinders viscometry

OCC(O)CO [glycerol]
Conditions | viscosity [mPa·s]
292.89 K | 1470
298.1 K | 970.6
302.59 K | 645.8
312.81 K | 305.3
323.88 K | 147.4
333.15 K | 84.71
343.8 K | 49.83
353.67 K | 31.8
364.12 K | 21.05
374.38 K | 14.74
383.29 K | 11
394.08 K | 8.32
